Laboratory results reported in article PMC3447335, “Evaluation of Pseudopteroxazole and Pseudopterosin Derivatives against Mycobacterium tuberculosis and Other Pathogens” (Marine Drugs, 2012).
In brackets after ≈: the same amount, converted by molar mass.

How the values were obtained:
Experiment in all cases: microbe, parasite or virus in culture
Type in all cases: cell-based
[1] = tested on: M. tuberculosis H37Rv isogenic strain resistant to moxifloxacin (MOXr); conditions: Mycobacterium tuberculosis, read-out: MABA MIC MOXr
[2] = tested on: M. tuberculosis H37Rv isogenic strain resistant to isoniazid (INHr); conditions: Mycobacterium tuberculosis, read-out: MABA MIC INHr
[3] = tested on: M. tuberculosis H37Rv isogenic strain resistant to rifampin (RMPr); conditions: Mycobacterium tuberculosis, read-out: MABA MIC RMPr
[4] = tested on: M. tuberculosis H37Rv isogenic strain resistant to cycloserine (CSr); conditions: Mycobacterium tuberculosis, read-out: MABA MIC CSr
[5] = tested on: M. tuberculosis H37Rv isogenic strain resistant to streptomycin (SMr); conditions: Mycobacterium tuberculosis, read-out: MABA MIC SMr
[6] = tested on: M. tuberculosis H37Rv isogenic strain resistant to kanamycin (KMr); conditions: Mycobacterium tuberculosis, read-out: MABA MIC KMr

CC(C)=C[C@@H]1C[C@H](C)[C@H]2CC[C@H](C)c3c2c1c(C)c1ncoc31 [Compound 1, pseudopteroxazole]
MIC [1]: 8 µg/mL (≈ 25.9 µM) | MIC [2]: 8 µg/mL (≈ 25.9 µM) | MIC [3]: 8 µg/mL (≈ 25.9 µM) | MIC [4]: 14 µg/mL (≈ 45.2 µM) | MIC [5]: 14 µg/mL (≈ 45.2 µM) | MIC [6]: 16 µg/mL (≈ 51.7 µM)

NNC(=O)c1ccncc1 [Isoniazid]
MIC [1]: 0.03 µg/mL (≈ 0.219 µM) | MIC [2]: > 1.1 µg/mL | MIC [3]: 0.12 µg/mL (≈ 0.875 µM) | MIC [4]: 0.12 µg/mL (≈ 0.875 µM) | MIC [5]: 0.13 µg/mL (≈ 0.948 µM) | MIC [6]: 0.13 µg/mL (≈ 0.948 µM)

CO[C@H]1/C=C/O[C@@]2(C)Oc3c(C)c(O)c4c(O)c(c(/C=N/N5CCN(C)CC5)c(O)c4c3C2=O)NC(=O)/C(C)=C\C=C\[C@H](C)[C@H](O)[C@@H](C)[C@@H](O)[C@@H](C)[C@H](OC(C)=O)[C@@H]1C [Rifampin, reference compound]
MIC [1]: 0.02 µg/mL (≈ 0.0243 µM) | MIC [2]: 0.02 µg/mL (≈ 0.0243 µM) | MIC [3]: > 3.3 µg/mL | MIC [4]: 0.01 µg/mL (≈ 0.0122 µM) | MIC [5]: 0.08 µg/mL (≈ 0.0972 µM) | MIC [6]: 0.02 µg/mL (≈ 0.0243 µM)
